The test addresses human LPAR1 (Homo sapiens, UniProt Q92633). Description: In vitro functional assay of lysophosphatidic acid receptor 1 activity (calcium flux). It counts as cell-based.
The mark [1] stands for this setting: B103 cells stably expressing human LPAR1, calcium flux (Fluo-4 NW) after lysophosphatidic acid (18:1) at EC80, 100 pM to 10 μM, read-out: LPAR1 IC50.

Read-outs that look alike come from different tables or passages of the source.

human LPAR1, sequence (Q92633 whole entry): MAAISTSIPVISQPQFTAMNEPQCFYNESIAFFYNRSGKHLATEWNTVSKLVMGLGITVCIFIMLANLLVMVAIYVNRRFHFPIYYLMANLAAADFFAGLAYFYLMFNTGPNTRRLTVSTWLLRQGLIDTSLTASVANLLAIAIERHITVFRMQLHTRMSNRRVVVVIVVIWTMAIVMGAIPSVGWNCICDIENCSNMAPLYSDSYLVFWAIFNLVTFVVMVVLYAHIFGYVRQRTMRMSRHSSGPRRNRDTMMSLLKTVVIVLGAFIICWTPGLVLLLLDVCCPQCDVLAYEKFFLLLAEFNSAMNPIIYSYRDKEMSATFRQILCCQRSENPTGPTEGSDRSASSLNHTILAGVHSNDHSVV

Turning to `Cc1ccc(NC(=O)N(c2ccccc2C(C)C)[C@H]2CCC(=O)N(C)C2)c(OC(F)F)n1` [Example 6, (S)-3-(2-(difluoromethoxy)-6-methylpyridin-3-yl)-1-(2-isopropylphenyl)-1-(1-methyl-6-oxopiperidin-3-yl)urea], under setting [1], the half-inhibitory concentration (IC50) fell in the range of 10 to 100 nM.
In the case of `CC(C)(C)c1ccccc1N(C(=O)Nc1ncc(Br)cc1OC(F)F)C1CCC(C(=O)O)CC1` (centres unmarked) [Example 273], the IC50 under setting [1] lay within 10 to 100 nM.
In the case of `COc1ccc(NC(=O)N(c2ccccc2C(C)C)[C@H]2CC[C@](C)(C(=O)O)CC2)c(OC(F)F)n1` [Example 340], the IC50 under setting [1] lay in the range of 10 to 100 nM.
The same measure, in the same setting: the result for `Cc1ccc(NC(=O)N(c2ccccc2C(C)C)[C@H]2CC[C@H](O)CC2)c(OC(F)F)n1` [Example 239, 3-(2-(difluoromethoxy)-6-methylpyridin-3-yl)-1-((1r,4r)-4-hydroxycyclohexyl)-1-(2-isopropylphenyl)urea] reads 100 to 1000 nM; that for `Cc1ccc(NC(=O)N(c2ccccc2C(C)C)C2CN(S(C)(=O)=O)C2)c(OC(F)F)n1` [Example 74, 3-(2-(difluoromethoxy)-6-methylpyridin-3-yl)-1-(2-isopropylphenyl)-1-(1-(methylsulfonyl)azetidin-3-yl)urea], 100 to 1000 nM.
Same read-out and setting: with `Cc1ccc(NC(=O)N(c2ccccc2C(C)C)C2CC3(C2)CN(S(C)(=O)=O)C3)c(OC(F)F)n1` [Example 76, 3-(2-(difluoromethoxy)-6-methylpyridin-3-yl)-1-(2-isopropylphenyl)-1-(2-(methylsulfonyl)-2-azaspiro[3.3]heptan-6-yl)urea] the figure was 100 to 1000 nM; with `Cc1ccc(NC(=O)N(c2ccccc2C(C)C)C2CC3(C2)CN(C(=O)Cn2nccn2)C3)c(OC(F)F)n1` [Example 84, 1-(2-(2-(2H-1,2,3-triazol-2-yl)acetyl)-2-azaspiro[3.3]heptan-6-yl)-3-(2-(difluoromethoxy)-6-methylpyridin-3-yl)-1-(2-isopropylphenyl)urea], 100 to 1000 nM.
On the same count and under the same terms, the result for `Cc1ccc(NC(=O)N(c2ccccc2C(C)C)[C@H]2CC[C@@H](C(=O)O)C2)c(OC(F)F)n1` [Example 301] reads 10 to 100 nM; that for `CNC(=O)CC1CC(N(C(=O)Nc2ccc(C)nc2OC(F)F)c2ccccc2C(C)C)C1` (centres unmarked) [Example 190, 2-(3-(3-(2-(difluoromethoxy)-6-methylpyridin-3-yl)-1-(2-isopropylphenyl)ureido)cyclobutyl)-N-methylacetamide], 100 to 1000 nM.
For `COC(=O)c1cc(Br)cnc1NC(=O)N(c1ccccc1C(C)C)C1CCN(C(C)=O)CC1` [Example 226], where the note is “LPAR1 IC50”, the half-maximal inhibitory concentration (IC50) was 100 to 1000 nM.
`COc1ccc(NC(=O)N(c2ccccc2C(C)C)[C@H]2CCN(C(C)=O)C[C@H]2F)c(OC(F)F)n1` (racemic) [Example 47, rac-1-((3R,4S)-1-acetyl-3-fluoropiperidin-4-yl)-3-(2-(difluoromethoxy)-6-methoxypyridin-3-yl)-1-(2-isopropylphenyl)urea]: the half-inhibitory concentration (IC50) (LPAR1 IC50) lay in the range of 10 to 100 nM.
The same measure, in the same setting: with `COc1ccc(NC(=O)N(c2ccccc2C(C)C)[C@@H]2[C@@H]3CC[C@H]2CN(C(C)=O)C3)c(OC(F)F)n1` [Example 56, 1-((1R,5S,8s)-3-acetyl-3-azabicyclo[3.2.1]octan-8-yl)-3-(2-(difluoromethoxy)-6-methoxypyridin-3-yl)-1-(2-isopropylphenyl)urea] the figure was 100 to 1000 nM.
With `CC(C)c1ccccc1N(C(=O)Nc1cc(F)c(F)cc1OC(F)F)[C@H]1CC[C@H](C(=O)O)CC1` [Example 298, (1r,4r)-4-(3-(2-(difluoromethoxy)-4,5-difluorophenyl)-1-(2-isopropylphenyl)ureido)cyclohexane-1-carboxylic acid], the IC50 under setting [1] was less than 10 nM.
Regarding `COc1ccc(NC(=O)N(c2ccccc2C(C)C)C2CCN(C(C)=O)CC2)c(OC(F)F)n1` [Example 86, 1-(1-acetylpiperidin-4-yl)-3-(2-(difluoromethoxy)-6-methoxypyridin-3-yl)-1-(2-isopropylphenyl)urea], under “LPAR1 IC50”, the IC50 is 10 to 100 nM.
Regarding `CC(=O)N(C(C)=O)[C@H]1CC[C@@H](N(C(=O)Nc2ccc(C)nc2OC(F)F)c2ccccc2C(C)C)CC1` [Example 264, N-acetyl-N-((1s,4s)-4-(3-(2-(difluoromethoxy)-6-methylpyridin-3-yl)-1-(2-isopropylphenyl)ureido)-cyclohexyl)acetamide], the concentration for half-maximal inhibition (IC50) under setting [1] was in the range of 100 to 1000 nM.
Take `Cc1ccc(NC(=O)N(CC2CS(=O)(=O)C2)c2ccccc2C(C)C)c(OC(F)F)n1` [Example 19, 3-(2-(difluoromethoxy)-6-methylpyridin-3-yl)-1-((1,1-dioxidothietan-3-yl)methyl)-1-(2-isopropylphenyl)urea]: the IC50 under setting [1] is 100 to 1000 nM.
Still for that read-out and setting: with `Cc1ccc(NC(=O)N(c2ccccc2C(C)C)[C@H]2C[C@H](C(=O)O)C2)c(OC(F)F)n1` [Example 161, trans-3-(3-(2-(difluoromethoxy)-6-methylpyridin-3-yl)-1-(2-isopropylphenyl)ureido)cyclobutane-1-carboxylic acid] the figure was 10 to 100 nM.
As to `COc1cc(C)ccc1NC(=O)N(c1ccccc1C(C)C)[C@H]1CC[C@H](C(=O)O)CC1` [Example 327, (1r,4r)-4-(1-(2-isopropylphenyl)-3-(2-methoxy-4-methylphenyl)ureido)cyclohexane-1-carboxylic acid], under setting [1], the IC50 is less than 10 nM.
Turning to `CC(C)c1ccccc1N(C(=O)Nc1cc(F)c(C2CC2)nc1OC(F)F)[C@H]1CC[C@H](C(=O)O)CC1` [Example 223], the 50% inhibitory concentration (IC50) under setting [1] fell in the range of 10 to 100 nM.
Still for that read-out and setting: the result for `CC(=O)N(C(C)=O)[C@H]1CC[C@H](N(C(=O)Nc2ccc(C)nc2OC(F)F)c2ccccc2C(C)C)CC1` [Example 265, N-acetyl-N-((1r,4r)-4-(3-(2-(difluoromethoxy)-6-methylpyridin-3-yl)-1-(2-isopropylphenyl)ureido)-cyclohexyl)acetamide] reads more than 1000 nM; that for `COc1cc(C(F)F)ncc1NC(=O)N(c1ccccc1C(C)C)[C@H]1C[C@@H](CC(=O)O)C1` [Example 307], 100 to 1000 nM; that for `CC(=O)N1CC2(CCC(N(C(=O)Nc3ccc(C)nc3OC(F)F)c3ccccc3C(C)C)CC2)C1` [Example 250, 1-(2-acetyl-2-azaspiro[3.5]nonan-7-yl)-3-(2-(difluoromethoxy)-6-methylpyridin-3-yl)-1-(2-isopropylphenyl)urea], 100 to 1000 nM.
Regarding `CC(C)c1ccccc1N(C(=O)Nc1ncc(Cl)cc1OC(F)F)[C@H]1CC[C@H](C(=O)O)CC1` [Example 336, (1r,4r)-4-(3-(5-chloro-3-(difluoromethoxy)pyridin-2-yl)-1-(2-isopropylphenyl)ureido)cyclohexane-1-carboxylic acid], the 50% inhibitory concentration (IC50) under setting [1] lay in the range of 10 to 100 nM.
As to `COc1ccc(NC(=O)N(c2ccccc2C(C)C)[C@H]2CC[C@H](C(=O)O)CC2)c(OC(F)F)n1` [Example 144, trans-4-(3-(2-(difluoromethoxy)-6-methoxypyridin-3-yl)-1-(2-isopropylphenyl)ureido)cyclohexane-1-carboxylic acid], the half-maximal inhibitory concentration (IC50) under setting [1] was in the range of 10 to 100 nM.
The same measure, in the same setting: the result for `Cc1ccc(NC(=O)N(c2ccccc2C(C)C)[C@H]2C[C@H](CC#N)C2)c(OC(F)F)n1` [Example 27, 1-((1r,3r)-3-(cyanomethyl)cyclobutyl)-3-(2-(difluoromethoxy)-6-methylpyridin-3-yl)-1-(2-isopropylphenyl)urea] reads 100 to 1000 nM.
Still for that read-out and setting: the result for `Cc1ccc(NC(=O)N(c2ccccc2C(C)C)C2CNC(=O)C2)c(OC(F)F)n1` (centres unmarked) [Example 30, 3-(2-(difluoromethoxy)-6-methylpyridin-3-yl)-1-(2-isopropylphenyl)-1-(5-oxopyrrolidin-3-yl)urea] reads 100 to 1000 nM.

The values above are taken from patent US20250034110A1, “LPAR1 ANTAGONISTS AND USES THEREOF” (Pipeline Therapeutics, Inc., priority 2021, published 2025).
